# *1 amine or outer side, *2 acyl side, *3 side chain or, on linkers, in order; H or OH if unused. Where a SMILES comes first, the peptide text is derived from it. [ ]: non-standard residue; d: D form. The star is where a group is joined. ξ: configuration not given here. NH(1-OH-2-oxopiperidin-3-yl) = O=C1C(N*)CCCN1O; ξOrn(N(OH)CHO) = NC(CCCN(O)C=O)C(=O)O; ξAsp(βξ-Me) = CC(C(=O)O)C(N)C(=O)O; X2 = C/C=C(/N[*:1])C(=O)[*:2]; X1 = CC(N)C(O)C(C)C(=O)*
# How the values were obtained:
# [1] = Transmission electron microscopy of delftibactin A:Au(III) complexes; settings: delftibactin A:AuCl3 2:1, 10 min
# Excerpt: Delftibactin A was reacted with AuCl3 with a molar ratio equal to 2:1 for ten minutes. Each separate reaction of delftibactin A with AuCl3 was examined using a Phillips CM-10 transmission electron microscopy operating at 80 kV. The whole-mount sample was absorbed and dried on a formvar-carbon coated 100-square mesh copper grid and rinsed with filter sterilized, de-ionized water to remove any salt precipitates.
# D. acidovorans ΔdelG [2] = assay: Gold detoxification in chronic exposure by delftibactin A (growth curves); assay type: cell-based, Delftia acidovorans
# Experimental: (§1) Twenty microliter reactions were set up as follows: i) water only, ii) 5 mM delftibactin A, iii) 5 mM AuCl3 iv) 5 mM FeCl3 v) 5 mM AuCl3+5 mM FeCl3 vi) 5 mM delftibactin B+5 mM AuCl3 vii) delftibactin B+5 mM AuCl3+5 mM FeCl3 viii) delftibactin B+5 mM FeCl3. Reactions were initiated by the addition of delftibactin and images were taken at time points indicated. After 2 h, reactions were serially diluted to 30 μM final concentration in ACM containing D. acidovorans ΔdelG diluted 1:1000 from an overnight culture. Optical density was monitored using a TECAN Sunrise™ microplate reader at 600 nm for 36 h. Results are a mean of three growth curves for each condition from a single representative experiment. As a second test of delftibactin protective capacity, D. acidovorans ΔdelG cells from an overnight culture were inoculated 1:1000 into 100 μL ACM in a 96-well plate containing 0 or 10 μM AuCl3, and then provided 0 or 100 μM delftibactin. Cultures were grown for 84 h at 250 rpm at 30° C. in a TECAN Sunrise™ microplate reader, measuring at 600 nm to assess growth. Results are a mean of three growth curves for each condition from a single representative experiment.
# [3] = Gold-siderophore reactions (gold nanoparticle formation, gold-iron competition, LC-MS of supernatant)
# Experimental: Ten microliters of the AuCl3 stock solution was aliquoted into separate 200 μL microcentrifuge tubes, followed by the addition of 10 μL of each respective siderophore or metal chelator, where water was used as a control. The reaction was monitored over time and images were taken. After 2 h, a sample of the mixture was diluted 10× and analyzed by transmission electron microscopy (TEM) (see below). The remaining sample was centrifuged at 13,000 rpm for ten minutes. A 10 μL sample of the supernatant was diluted in 90 μL of water and subsequently analyzed by LC-MS. A control of unreacted siderophore and metal chelator of the same concentration was also analyzed for comparison. […] Reactions were monitored similarly. UV-vis spectrums were obtained using a Synergy 4 microplate reader (Biotek).
# D. acidovorans ΔdelG [4] = assay: Gold protective comparison of delftibactin A and B (growth curves); assay type: cell-based, Delftia acidovorans; settings: 125 μM AuCl3 + 125 μM delftibactin
# Experimental: Twenty microliter reactions were set up as follows: water only, 5 mM AuCl3, 5 mM AuCl3+delftibactin A, and 5 mM AuCl3+delftibactin B. Reactions were initiated with the addition of delftibactin A or B. After 2 h, reactions were serially diluted to 125 μM in ACM containing D. acidovorans ΔdelG diluted 1:1000 from an overnight culture. Optical density was monitored using a TECAN Sunrise™ microplate reader at 600 nm for 36 h. Results are a mean of three growth curves for each condition from a single representative experiment.
# D. acidovorans ΔdelG [5] = assay: Delftibactin-mediated protection against gold toxicity (CFU after acute exposure); assay type: cell-based, Delftia acidovorans; settings: exogenous purified delftibactin 30 sM, 100 μM AuCl3, 30 min
# Experimental: Cultures of D. acidovorans wild type and D. acidovorans ΔdelG were grown in deferrated ACM for 2 days at 30° C. In 96-well plates, 200 μL of wild type or mutant grown culture were incubated in the presence and absence of 100 μM AuCl3. At the same time, the mutant culture was also complemented with […] delftibactin (biological levels) in the presence of 100 μM AuCl3. After 30 minutes, cultures were serially diluted in water and plated on LB agar to determine the colony forming units of D. acidovorans after gold exposure. Results are shown as mean s.d.; n=4; Two-tailed student's t-test.
# [6] = Test strip: metallophore on C18-silica TLC plate developed with gold chloride; settings: immobilized on C18-silica TLC slide, developed with gold chloride solution
# Experimental: Pictures were taken after 10 min.
# A solution containing gold chloride was used to develop the strip. Pictures were taken at the times indicated.
# [7] = Experimental: The gold-delftibactin A interaction was determined through two separate experiments. First, AuCl3 was held constant at 2.5 mM and the interaction with delftibactin A was monitored by measuring the absorption of AuCl3 remaining in solution after precipitation by delftibactin A through comparison with a standard curve. Briefly, 2.5 mM AuCl3 was incubated with 5, 2.5, 1.25, 0.6125, 0.3063, and 0.1531 mM delftibactin A for 1 h. Solutions were filtered with a 0.22 μM Acrodisc (Pall, USA) to remove insoluble delftibactin A-gold precipitate. 100 μl of the filtered reaction was placed in a 96-well plate and the absorbance was read at 300 nm using a SpectraMax 384 Plus (Molecular Devices, USA). Absorption was compared to an AuCl3 standard curve to determine the concentration of AuCl3 remaining in solution. To monitor the amount of delftibactin A remaining in solution after reaction with gold a similar experiment was conducted. Delftibactin A (2.5 mM) was incubated with 5, 2.5, 1.25, 0.6125, 0.3063, and 0.1531 mM AuCl3 for 1 h. Solutions were filtered similar to above. Reaction mixtures were analyzed using a Waters Alliance 2695 RP-HPLC separations module, equipped with a Waters 2998 photodiode array and a Luna 5u C18 column (250×4.60 mm, Phenomenex). The mobile phase was linear from 2% acetonitrile, 98% water+5 mM (NH4)2CO3 at 2 min to 14% acetonitrile at 18 min at a flow rate of 1 mL/min. […]
# [8] = Citrate-gold and delftibactin A-gold comparison; settings: room temperature, neutral pH
# Experimental: Stock 10 mM solutions of sodium citrate and purified delftibactin A were mixed with and equimolar solution of AuCl3 and allowed to react at room temperature in 1.5 mL Eppendorf tubes. Photographs were taken from the initial addition of gold to 1 h exposure. Similarly, TEM experiments were performed by mixing 10 mM stock solutions of AuCl3 and either delftibactin A or sodium citrate 1:1 on a formvar-carbon coated 100-square mesh copper grid, imaging after 10 min AuCl3 exposure.
# [9] = TEM imaging of siderophore-gold reactions; settings: TEM
# Experimental: Transmission electron microscopy imaging was performed with a JEOL JEM 1299 EX TEMSCAN transmission electron microscope (JEOL, Peabody, Mass., USA) operated at an accelerating voltage of 80 kV. Sample preparation: a 2 μL drop of a diluted (10×) siderophore-gold reaction was deposited over a formvar-coated TEM grid, and was allowed to dry under ambient conditions before being imaged. Gold nanoparticle size distribution was determined using the software, ImageJ.
# [10] = Time course of AuCl3 precipitation by delftibactins in absence and presence of FeCl3; settings: equimolar 5 mM AuCl3 + 5 mM FeCl3
# Experimental: as §1
structure (smiles),measurement,setting,value
C/C=C(/NC(=O)CNC(=O)C(C)NC(=O)C(NC(=O)C(C)C(O)C(C)N)C(C)C(=O)O)C(=O)NC(CCCN(O)C=O)C(=O)NC(C)C(=O)NC(CCCNC(=N)N)C(=O)NC1CCCN(O)C1=O (stereo not drawn) [delftibactin A] (X1-[ξAsp(βξ-Me)]AG[X2][ξOrn(N(OH)CHO)]AR-{NH(1-OH-2-oxopiperidin-3-yl)}; configuration not given here),nature of gold precipitate by TEM,[1],abundance of colloidal gold nanoparticles and octahedral gold platelets
same,toxicity,D. acidovorans ΔdelG [2],nontoxic
same,protection from chronic gold toxicity,"D. acidovorans ΔdelG [2]; exogenous addition to ΔdelG cultures, 100 μM delftibactin A + 10 μM AuCl3, 84 h",sufficient to overcome chronic gold toxicity
same,gold nanoparticle formation (visual inspection),[3]; 10 mM AuCl3 reacted with equimolar chelator,rapidly undergo a characteristic blackening
same,concentration of metallophore after AuCl3 exposure,"[3]; LC-MS, 2 hr exposure, vs unreacted control",decreased
same,reaction with gold after pre-exposure to / in presence of iron,[3]; equimolar FeCl3,gold reducing power is reduced
same,detoxification / protection against AuCl3 toxicity,D. acidovorans ΔdelG [4],more protective against AuCl3 toxicity than delftibactin B
same,rescue of ΔdelG strain from gold toxicity,D. acidovorans ΔdelG [5],rescued
same,darkening of test strip,[6],darkening can be seen
same,solubility on complexing to gold,[7],abrupt and total loss of solubility
same,co-precipitation with gold,"[7]; 2.5 mM AuCl3, end-point assays",co-precipitate with gold from solution
same,timescale of creating gold structures from Au3+,[8],seconds
same,octahedral gold particle formation,[9],also produces octahedral gold particles
same,gold precipitation in presence of iron,[10],gold precipitation would proceed in the presence of high concentrations of iron

# — patent US10174401B2, “Methods for binding and precipitating gold using microbial-derived metallophores and their uses” (McMaster University, priority 2013, dated 2019)
